Measurements: patent US6495594B2, “Biologically active analogs of discodermolide” (Harbor Branch Oceanographic Institution, Inc., priority 2000, dated 2002)
Entries after “also recorded” stand apart in the source; their conditions may differ.

What was measured:
[1] = tested on: A549 human adenocarcinoma; assay: In vitro proliferation of A549 cells (MTT); assay type: cell-based; settings: 72 hours exposure; for IC50: value in parentheses
Method: Discodermolide and discodermolide analogs were analyzed as to their effects on proliferation of A549 human adenocarcinoma and P388 murine leukemia cell lines. P388 cells were obtained from Dr. R. Camalier, National Cancer Institute, Bethesda, MD, and A549 cells were obtained from American Type Culture Collection, Rockville, MD. All cell lines were maintained in tissue culture medium (TCM; Roswell Park Memorial Institute RPMI 1640 supplemented with 100 U/mL penicillin, […], 60 […], 18 mM HEPES, 0.05 mg/mL gentamicin (Life Technologies, Gaithersburg, MD) and 10% fetal bovine serum) and cultured in plastic tissue culture flasks at 37° C. in humidified air containing 5% CO2. Stock cultures of P388 cells were subcultured 1:20 in fresh TCM every 2 to 3 days. Stock cultures of A549 cells were subcultured 1:10 every 3 to 4 days. To assess the antiproliferative effects of agents against the cells, 200 μL cultures (96-well tissue culture plates, Nunc, Denmark) were established at 1 ×10^5 cells/mL in TCM or TCM containing the test agent at 0.03-5.0 μg/mL. After 48-h exposures, P388 cells were enumerated using 3-[4,5-dimethylthiazol-2-yl]-2,5-diphenyltetrazolium bromide (MTT) as described in the literature (M. C. Alley, et al., Cancer Res. 48:589, 1988). A549 cells were enumerated in the same manner after 72 hours exposure. The results were expressed as percent inhibition compared to the negative (no drug) control. Positive drug controls of varying dilutions of 5-fluorouracil and adriamycin (Sigma Chemical Co., St Louis, MO) were included to monitor drug sensitivity of the cell line.
To quantitate the effects on cell proliferation and resulting IC50 values, 75 μL of warm growth media containing 5 mg/mL MTT is added to each well, cultures returned to the incubator, and left undisturbed for 3 hours. To spectrophotometrically quantitate formation of reduced formazan, plates are centrifuged (500×g, 10 minutes), culture fluids removed by aspiration, and 200 μL of acidified isopropanol (2 mL concentrated HCl /liter isopropanol) added per well. The absorbance of the resulting solutions is measured in a plate reader (TECAN Spectra SLT; TECAN U.S., Research Triangle Park, N.C.) at 570 nm and a 650 nm reference filter. The absorbance of test wells is divided by the absorbance of drug-free wells, and the concentration of agent that results in 50% of the absorbance of untreated cultures (IC50) is determined by linear regression of logit-transformed data (D. J. Finney, Statistical Method in Biological Assay, third ed., pp. 316-348, Charles Griffin Co., London, 1978). A linear relationship between tumor cell number and formazan production has been routinely observed over the range of cell densities observed in these experiments. The two standard drug controls (indicated above) are included in each assay as a check to monitor the drug sensitivity of each of the cell lines and IC50 values are determined for each drug-cell combination.

[2] = tested on: purified bovine brain tubulin; assay: Tubulin polymerization (optical density at 350 nm); assay type: biochemical; parameters: key to Purified tubulin polymerization by 10 μM / Purified tubulin polymerization at 10 μM: −: no effect; +/−: minimal or questionable effect; +: weak effect; ++: strong effect; +++: very strong effect equivalent to discodermolide; settings: 10 μM compound; for Purified tubulin polymerization by 10 μM / Maximum polymerization relative to that induced by discodermolide / Purified tubulin polymerization at 10 μM: 1 mg/mL tubulin; for Purified tubulin polymerization by 10 μM / Purified tubulin polymerization at 10 μM: subjective rating; for Purified tubulin polymerization by 10 μM: Table 11; for Purified tubulin polymerization at 10 μM: Table 12
Method: (§1) Compounds were tested at 10 μM with 1 mg/mL tubulin. The temperature was varied during the course of the experiment as follows: the experiment was begun with an initial temperature of 4° C. and held for 1 minute; the temperature was then increased to 35° C. at a rate of 1° C./minute, held at 35° C. for 1 minute, decreased to 4° C. at a rate of 2° C/minute, and finally held at 4° C. for 14 minutes. The curves shown are for compounds: discodermolide (I); 2-desmethyldiscodermolide (II); 19-desaminocarbonyldiscodermolide (III); 2-epidiscodermolide (IV); and 3-deoxy-2A-discodermolide (VI).
as §1, with “C./minute,” for “C/minute,”, “for” for “for compounds:”, “8,21,23-hexahydrodiscodermolide (XII)” for “2-desmethyldiscodermolide (II); 19-desaminocarbonyldiscodermolide (III); 2-epidiscodermolide (IV);”, “7-deoxy-8,21,23-hexahydrodiscodermolide (XIII).” for “3-deoxy-2A-discodermolide (VI).”
Polymerization of purified bovine brain tubulin (Cytoskeleton Inc., Denver, Colo.) was followed by changes in the optical density of tubulin solutions at 350 nm in a Hitachi U-3010 spectrophotometer equipped with a SPR-10 electronic thermostatted cell holder. Stock solutions of tubulin were diluted on ice in G-PEM buffer (1 mM GTP, 80 mM PIPES, 1 mM EGTA, 0.5 mM magnesium chloride; pH 6.8) to a final concentration of 1 mg/mL. The instrument was zeroed on this solution at 4° C. Discodermolide, and its analogs, were then added to the tubulin solution to a final concentration of 10 μM, quickly mixed, and the absorbance monitored over a period of 61 minutes. Within this time the temperature of the thermoelectric cell holder was held at 4° C. for 1 minute, increased to 35° C. at a rate of 1° C./minute, reduced back to 4° C. at a rate of 2° C./minute, and held at 4° C. for an additional 14 minutes.

A549 human lung cells = assay: Cell cycle progression by flow cytometry; assay type: cell-based
Method: Cell cycle studies were initiated in order to pinpoint a specific phase within the cell cycle in which discodermolide analogs were exerting their antiproliferative effect. A549 human lung cells were used as cell cycle targets to compare the effects of discodermolide and discodermolide analogs on perturbation of the cell cycle. Cell cycle analyses were performed as follows: A549 cells were incubated at 37° C. in 5% CO2 in air in the presence or absence of varying concentrations of discodermolide or discodermolide analogs for 24 hr. Cells were harvested, fixed in ethanol, washed, and stained with 0.02 mg/mL of propidium iodide (P.I.) together with 0.1 mg/mL of RNAse A. Stained preparations were analyzed on a Coulter EPICS ELITE flow cytometer with 488 nm excitation. Fluorescence measurements and resulting DNA histograms were collected from at least 10,000 P.I. stained cells at an emission wavelength of 690 nm. Raw histogram data was further analyzed using a cell cycle analysis program (Multicycle, Phoenix Flow Systems).

Row | Compound | IC50 A549 cells [1] | IC50 [1] | Level of tubulin polymerization induced [2] | Stability of polymerized tubulin when held at 4° C. [2] | Purified tubulin polymerization by 10 μM [2] | Cell cycle effects (A549 human lung cells; concentration not given) | Maximum polymerization relative to that induced by discodermolide [2] | Purified tubulin polymerization at 10 μM [2] | Cell population accumulated in the G2/M phase (A549 human lung cells; 1000 nM, 24 hour incubation) | Cell cycle effects (A549 human lung cells; concentrations lower than 1000 nM) | Cell cycle effects (100 nM) (A549 human lung cells; 100 nM, 24 hr, A549)
1 | C=CC=CC(C)C(OC(N)=O)C(C)C(O)C(C)CC(C)=CC(C)C(O)C(C)C=CC(O)CC1OC(=O)CC(O)C1C (centres unmarked) [2-Desmethyldiscodermolide (II), 2-desmethyldiscodermolide] | 0.07 µg/mL | 0.12 µM | almost equivalent to those of the parent compound discodermolide | stable | ++ | very strong apoptotic (sub-G1 peak) effects as well as an increase in the percentage of cells residing in the G2/M phase | – | – | – | – | –
2 | CCCCC(C)C(OC(N)=O)C(C)C(O)C(C)CC(C)=CC(C)C(O)C(C)CCCCC1OC(=O)C(C)C(O)C1C (centres unmarked) [7-deoxy-8,21,23-hexahydrodiscodermolide] | 0.22 µg/mL | 0.377 µM | low levels | relatively stable | – | – | 39% | ++ | Approximately 50% | did not produce any cell cycle effects | –
3 | C=CC=CC(C)C(O)C(C)C(O)C(C)CC(C)=CC(C)C(O)C(C)C=CC(O)CC1OC(=O)C(C)C(O)C1C (centres unmarked) [19-Desaminocarbonyldiscodermolide (III), 19-desaminocarbonyldiscodermolide] | 0.045 µg/mL | 0.074 µM | low levels | relatively stable | + | Strong apoptosis; moderate G2/M block | 30-50% | – | – | – | –
4 | CCCCC(C)C(OC(N)=O)C(C)C(O)C(C)CC(C)=CC(C)C(O)C(C)CCC(O)CC1OC(=O)C(C)C(O)C1C (centres unmarked) [8,21,23-Hexahydrodiscodermolide (XII), 8,21,23-hexahydrodiscodermolide] | 0.04 µg/mL | 0.0677 µM | strong | relatively stable | – | – | approximately 80% | +++ | – | – | small percent increase in the cells accumulated at the G2/M phase; also recorded: high percentage of apoptosis
5 | C=C/C=C\[C@H](C)[C@H](OC(N)=O)[C@@H](C)[C@H](O)[C@@H](C)C/C(C)=C\[C@H](C)[C@@H](O)[C@@H](C)/C=C\[C@@H](O)C[C@@H]1OC(=O)[C@@H](C)[C@@H](O)[C@H]1C [2-Epidiscodermolide (IV), 2-epidiscodermolide] | 0.04 µg/mL | 0.067 µM | low levels | relatively stable | ++ | Apoptosis and weak G2/M block | 30-50% | – | – | – | –
